Results: paper PMC9102502, “The Influence of Selected Antipsychotic Drugs on Biochemical Aspects of Alzheimer’s Disease” (International Journal of Molecular Sciences, 2022)
Read-outs that look alike come from different tables or passages of the source.

Tests used:
[1] = target: T1, human plasma butyrylcholinesterase (Homo sapiens, UniProt P06276); test: BuChE inhibition, modified Ellman's method; assay type: biochemical; details: experimental data, mean ± SD, n = 6–9
T1 construct: The solution of plasma 200-fold diluted with 0.9% NaCl; from tissue; host or cells: citrated plasma from blood of healthy human donors
T1 sequence (P06276 29-602): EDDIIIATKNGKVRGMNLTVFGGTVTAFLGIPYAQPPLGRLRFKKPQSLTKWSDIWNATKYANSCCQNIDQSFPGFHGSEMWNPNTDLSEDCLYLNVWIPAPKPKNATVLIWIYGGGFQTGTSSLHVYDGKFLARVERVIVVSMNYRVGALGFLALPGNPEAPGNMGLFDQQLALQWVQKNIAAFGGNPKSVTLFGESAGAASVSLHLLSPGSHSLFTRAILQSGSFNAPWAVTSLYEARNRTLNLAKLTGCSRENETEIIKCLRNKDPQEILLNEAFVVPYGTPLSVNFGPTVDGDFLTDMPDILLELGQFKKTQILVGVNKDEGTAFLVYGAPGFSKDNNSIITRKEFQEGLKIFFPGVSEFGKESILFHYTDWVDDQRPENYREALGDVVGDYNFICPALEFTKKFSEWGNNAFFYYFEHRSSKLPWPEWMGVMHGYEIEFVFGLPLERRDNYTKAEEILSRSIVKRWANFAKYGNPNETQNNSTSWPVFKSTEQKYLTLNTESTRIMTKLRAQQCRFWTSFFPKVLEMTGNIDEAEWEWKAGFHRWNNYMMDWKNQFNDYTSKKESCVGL
Protocol: (§1) The activity of both cholinesterases (AChE and BuChE) were assessed spectrophotometrically according to the Ellman’s method with some modifications by Worek et al.. This test development included experimental determination of the optimal testing conditions. For all measurements, 37 °C was used as the best temperature for enzymatic determinations in material of human origin.
(§2) The solution of plasma 200-fold diluted with 0.9% NaCl and solution of hemolyzed erythrocytes diluted 400-fold with 0.9% were incubated (37 °C, 15 min) with 5 μL DTNB (0.01 mol/L) and 10 μL tested compound at a wider range of concentration than the therapeutic range in order to assess the overall effect of the compound on human esterases (AChE and BuChE). The controls without antipsychotics, containing only DTNB and diluted plasma or diluted solution of hemolyzed erythrocytes, were prepared. […] The final volume of a sample was 500 μL. […] The maximal velocity of the reaction was determined on the basis of changes in absorbance over time.
(§3) AChE SI (selectivity index) was calculated by using the following formula: SI = IC50 of BuChE/IC50 of AChE. However, BuChE SI was defined as IC50 of AChE/IC50 of BuChE. Maximal velocity (Vmax) and the Michaelis constant (Km) were calculated with the use of linear regression—according to the Hanes–Woolf plot.

human erythrocytes [2] = test: Methemoglobin formation in RBC, compounds alone; assay type: cell-based; details: 250 μg/L
Protocol: (§4) The blood samples were centrifuged (3000 rpm, 10 min, 20 °C, Micro 22 R centrifuge, Hettich Zentrifugen, Tuttlingen, Germany) to separate erythrocytes from the plasma and washed three times with 0.9% saline (NaCl). […] The erythrocytes were suspended in 0.9% saline. As control of basal hemolysis, erythrocytes were incubated with 0.9% NaCl. For total hemolysis control erythrocytes were incubated with 2.0% v/v Triton X-100. Incubation with Triton X-100 and K4[Fe(CN)6] (at concentration 50 g/L) was performed to control methemoglobin (MetHb) formation. Moreover, an antioxidant control containing ascorbic acid (AA) at a concentration of 10 µg/mL was prepared, while AAPH at a concentration of 50 mmol/L was an oxidizing agent. Antipsychotics at concentrations equaling their maximum therapeutic plasma concentrations (TPCmax), as well as 5-fold higher (5 × TPCmax) and 5-fold lower than TPCmax (1/5 × TPCmax), and the oxidizing agent AAPH at a concentration of 50 mmol/L, were added to 2% RBC suspension. Controls and tested samples were incubated at 37 °C. […] The percentage of hemolysis was calculated with the following formula:Hemolysis (%) = (Asample/Atotal hemolysis) × 100%(1) where Asample—absorbance of the test sample; Atotal hemolysis—the absorbance of the reference sample with 2% Triton X solution, corresponding to complete hemolysis.

human erythrocytes [3] = test: RBC hemolysis, compounds alone; assay type: cell-based; details: 2% human erythrocyte (RBC) suspension, read-out: increase of disintegration of the erythrocyte membrane (hemolysis)
Protocol: as §4

BuChE = BuChE (Homo sapiens, UniProt P06276); test: Kinetic parameters of enzymatic reaction (Hanes–Woolf), BuChE; assay type: biochemical; parameters: The solution of plasma 200-fold diluted with 0.9% NaCl; from tissue; host or cells: citrated plasma from blood of healthy human donors
Sequence of BuChE (P06276 29-602): as above
Protocol: Kinetic parameters were obtained on the basis of three individual experiments carried out on different biological materials. For this purpose, various concentrations of substrates (ATC and BTC) were used in experiments. The type of inhibition and kinetic parameters of enzymatic reactions were obtained by linear regression using the Hanes–Woolf equations.
as §3

[4] = target: T2, recombinant human β-amyloid (1–42) (Homo sapiens, UniProt P05067); test: Beta-amyloid aggregation, Thioflavin T fluorescence; assay type: biochemical; details: 24 and 48 h; both tested concentrations
T2 construct: recombinant human β-amyloid (1–42; ultrapure); purchased Sigma-Aldrich (St. Louis, MO, USA)
T2 sequence (P05067 672-713 limits assumed): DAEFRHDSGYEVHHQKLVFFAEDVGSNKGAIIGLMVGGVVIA
Protocol: Aβ42 peptide was dissolved in DMSO and left to hydrate for a few minutes. The solution was centrifuged at 10,000 rpm for 5 min at 4 °C to separate any precipitated material. The solution at a concentration of 220 μmol/L was stored in small aliquots at a temperature of −30 °C and before each experiment it was restored at 37 °C for 15 min. Test samples containing Aβ42 solution at the final concentration of 20 μmol/L was incubated with antipsychotics at concentrations equaling their TPC and 1/2 × TPC (v = 10 µL). The final volume of the test samples was 100 μL. The positive control constituted a sample of Aβ42 peptide, whereas the negative control contained tannic acid at the final concentrations of 0.1 µmol/L and 10 µmol/L. The fibrillation reaction was set up by addition of thioflavin ThT dye at a concentration of 5 µmol/L. The fluorescence intensity was measured at room temperature with Ex/Em = 440 nm/484 nm (Synergy H1; BioTek, Winooski, VT, USA). The measurements of fluorescence intensity expressed as relative fluorescence units (RFU) were taken at 10, 30, 60 and 90 min and then after 24 and 48 h. The fluorescence intensity measured for control equaled 100% of Aβ aggregation and it was used to estimate the inhibitory properties of the tested antipsychotics.

[5] = target: T3, human erythrocyte acetylcholinesterase (Homo sapiens, UniProt P22303); test: AChE inhibition, modified Ellman's method; assay type: biochemical; details: for AChE reaction velocity: control 0.259 ± 0.013 A/min
T3 construct: solution of hemolyzed erythrocytes diluted 400-fold; from tissue; host or cells: hemolyzed erythrocytes from blood of healthy human donors
T3 sequence (P22303 32-617 isoform P22303-2 limits assumed): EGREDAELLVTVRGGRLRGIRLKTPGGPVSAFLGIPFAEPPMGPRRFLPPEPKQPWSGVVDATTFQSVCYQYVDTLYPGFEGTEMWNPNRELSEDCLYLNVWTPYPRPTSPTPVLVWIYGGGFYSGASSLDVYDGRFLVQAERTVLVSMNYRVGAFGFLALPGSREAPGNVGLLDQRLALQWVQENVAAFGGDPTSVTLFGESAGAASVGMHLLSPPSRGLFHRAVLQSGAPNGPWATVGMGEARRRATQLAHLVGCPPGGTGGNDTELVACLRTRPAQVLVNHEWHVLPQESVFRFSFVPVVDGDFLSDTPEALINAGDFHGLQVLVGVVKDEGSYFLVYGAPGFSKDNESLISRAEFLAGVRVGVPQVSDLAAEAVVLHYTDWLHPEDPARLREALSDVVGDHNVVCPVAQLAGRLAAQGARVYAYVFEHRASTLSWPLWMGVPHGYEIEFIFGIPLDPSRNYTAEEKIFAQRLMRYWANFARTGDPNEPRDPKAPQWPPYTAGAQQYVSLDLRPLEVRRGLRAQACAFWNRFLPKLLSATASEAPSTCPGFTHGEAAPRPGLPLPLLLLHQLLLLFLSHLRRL
Protocol: as §1, §2, §3

human erythrocytes [6] = test: Methemoglobin formation in RBC with AAPH; assay type: cell-based; details: 24 h, AAPH control 78.1%
Protocol: The blood samples were centrifuged (3000 rpm, 10 min, 20 °C, Micro 22 R centrifuge, Hettich Zentrifugen, Tuttlingen, Germany) to separate erythrocytes from the plasma and washed three times with 0.9% saline (NaCl). […] The erythrocytes were suspended in 0.9% saline. As control of basal hemolysis, erythrocytes were incubated with 0.9% NaCl. For total hemolysis control erythrocytes were incubated with 2.0% v/v Triton X-100. Incubation with Triton X-100 and K4[Fe(CN)6] (at concentration 50 g/L) was performed to control methemoglobin (MetHb) formation. Moreover, an antioxidant control containing ascorbic acid (AA) at a concentration of 10 µg/mL was prepared, while AAPH at a concentration of 50 mmol/L was an oxidizing agent. Antipsychotics at concentrations equaling their maximum therapeutic plasma concentrations (TPCmax), as well as 5-fold higher (5 × TPCmax) and 5-fold lower than TPCmax (1/5 × TPCmax), and the oxidizing agent AAPH at a concentration of 50 mmol/L, were added to 2% RBC suspension. Controls and tested samples were incubated at 37 °C. […] For each measurement, 0.5 mL samples were taken from incubated Eppendorf tubes and centrifuged (3000 rpm, 10 min). […] The percentage of hemolysis was calculated with the following formula:Hemolysis (%) = (Asample/Atotal hemolysis) × 100%(1) where Asample—absorbance of the test sample; Atotal hemolysis—the absorbance of the reference sample with 2% Triton X solution, corresponding to complete hemolysis.

astrocytes = test: WST-1 viability under AAPH-induced oxidative stress, astrocytes; assay type: cell-based, human; details: benperidol 5 and 10 μg/L, penfluridol 12.5 μg/L, pimozide 15 μg/L, promazine 25 and 50 μg/L
Protocol: WST-1 assay (Takara, Takara Bio Europe, Saint-Germain-en-Laye, France) was used to assess the effects of antipsychotics on the growth of HUVEC and astrocytes. The experiments were conducted as described previously. HUVEC were seeded at a density of 7500 cells, and astrocytes at 5000 cells per well on 96-well microplates and cultured for 24 h followed by treatment with compounds at ½ × TPCmax and TPCmax or pure medium as a control (v = 100 μL) for another 24 h (37 °C, 5% CO2). Subsequently, the cells were washed with culture medium (100 μL) and WST-1 reagent diluted in medium (10 μL of reagent + 90 μL of medium) was added. The plates were incubated at 37 °C in 5% CO2 for another 90 min for HUVEC and 60 min for astrocytes. The absorbance was read at 450 nm using a microplate reader (iMARK, Bio-Rad, Hercules, CA, USA). The cells viability was expressed as a percentage of the control samples which constituted 100% viability.
Moreover, the WST-1 assay was used to evaluate potential protective effects of antipsychotics on the growth of HUVEC and astrocytes under conditions of AAPH-induced oxidative stress. The experimental conditions were the same as in viability studies. AA at the final concentration of 10 μg/mL was used as an antioxidant control. After reaching the confluence, the antipsychotics were added at concentrations equaling ½ × TPCmax and TPCmax. After 1 h incubation under standard conditions, 50 μL AAPH was added to the wells containing tested compounds or AA. The AAPH concentration was chosen on the basis of preliminary experiments—17.5 mmol/L in HUVEC experiments, and 15.0 mmol/L in the case of astrocytes.

SMILES: CN(C)CCCN1c2ccccc2Sc2ccccc21 [Promazine, promazine]
- IC50 ([1]; IC50 BuChE): 186 nM
- IC50 ([1]; read-out: IC50 BuChE): 190 ± 20 nM
- formation of methemoglobin (human erythrocytes [2]; 5 h of incubation): 39%
- formation of methemoglobin (human erythrocytes [2]; 24 h of incubation): 64%
- hemolysis at 5 h, 250 μg/L (human erythrocytes [3]; 5 h of incubation): > 45%
- hemolysis at 24 h, 250 μg/L (human erythrocytes [3]; 24 h of incubation): > 59%
- Vmax(i) BuChE (BuChE; compound at its IC50): 0.144 ± 0.036 A/min
- Vmax(i) BuChE (BuChE; compound at ½ IC50): 0.192 ± 0.059 A/min
- type of inhibition of BuChE (BuChE; from Km(i), Vmax(i) vs Km, Vmax, mixed inhibition): same type of inhibition
- effect on Aβ aggregation after a longer incubation time [4]: substantially inhibit
- AChE reaction velocity ([5]; 100 µg/L): 0.245 ± 0.015 A/min
- AChE reaction velocity ([5]; 200 µg/L): 0.232 ± 0.016 A/min
- IC50 ([5]; theoretical values calculated on the basis of extrapolated plots): > 2000 nM
- methemoglobin formation with AAPH (human erythrocytes [6]; 10 μg/L): 60.7%
- methemoglobin formation with AAPH (human erythrocytes [6]; 50 μg/L): 54.5%
- astrocyte viability compared with the control (pure AAPH) (astrocytes): statistically significant increase
